These results are taken from patent US12492210B2, “Tricyclic compounds and their use” (HUTCHISON MEDIPHARMA LIMITED, priority 2019, dated 2025).

Where only a bound is given, the exact number is not on record here.

In assay [1] the target is T1, MAPK1(ERK2) enzyme (Homo sapiens, UniProt P28482).
T1 construct: purchased Invitrogen PV3313
In words: Z-Lyte Kinase Assay of ERK2. It counts as biochemical. The note with it: read-out: Example 18 IC50. Summed up:
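FRET-based Z-LYTE assay using ERK2 kinase with Ser/Thr3 peptide; compound tested at 0.00046–1 μM final in 2% DMSO. Kinase reaction ran 1 h at 25-30° C, followed by 1 h development. The coumarin/fluorescein emission ratio (445/520 nm) gave % phosphorylation, and IC50 was fitted from inhibition relative to uninhibited control.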

Assay [2] deals with p-RSK (Thr359) in colo205 cells. In words: p-RSK (Thr359) Acumen Assay in Colo205. It counts as cell-based. The following applies: Homo sapiens, COLO 205, 1 hour compound incubation, read-out: Example 19 IC50. Summed up:
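Colo205 cells (4000/well, seeded overnight in 10% FBS) were exposed 1 hour at 37° C to compound added from a 3–0.001 μM dilution series in 5% DMSO. Cells were then fixed, permeabilised and immunostained for p-RSK Thr359, with PI counterstain. Acumen cytometry gave the percentage of positive cells, normalised to untreated wells and 3 uM GDC0994 wells, for the IC50 fit.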

T1 sequence (P28482 whole entry): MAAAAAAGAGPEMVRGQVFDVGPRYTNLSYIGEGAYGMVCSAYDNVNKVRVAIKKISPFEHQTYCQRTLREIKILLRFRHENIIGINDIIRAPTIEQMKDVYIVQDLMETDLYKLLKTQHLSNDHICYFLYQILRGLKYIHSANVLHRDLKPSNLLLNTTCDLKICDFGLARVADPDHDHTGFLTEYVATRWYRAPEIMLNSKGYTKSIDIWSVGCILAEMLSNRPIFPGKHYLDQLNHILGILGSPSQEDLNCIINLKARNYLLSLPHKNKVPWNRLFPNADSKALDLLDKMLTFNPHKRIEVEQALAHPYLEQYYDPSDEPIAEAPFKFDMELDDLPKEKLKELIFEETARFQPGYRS

`Cn1nccc1Nc1cc(-c2cc3n(c2)CC(F)(F)Cn2c(COC(F)(F)F)nnc2-3)c(Cl)cn1` [Compound 107]: the IC50 (as a rule, the concentration that inhibits the measured activity by half) is not above 0.005 µM in assay [1] and more than 0.1 µM in assay [2].
Take `Cc1cnc(Nc2ccnn2C)nc1-c1cc2c3nnc(C4(C(F)(F)F)CCC4)n3c(C)cn2c1` [Compound 236]: the IC50 in assay [1] was not above 0.005 µM; in assay [2] it was not above 0.1 µM.
On the same counts, the results for `C[C@H](Oc1ccccc1F)c1nnc2n1CC(C)(C)Cn1cc(-c3ccnc(Nc4ccnn4C)n3)cc1-2` [Compound 44, (S)-4-(3-(1-(2-fluorophenoxy)ethyl)-6,6-dimethyl-6,7-dihydro-5H-pyrrolo[1,2-a][1,2,4]triazolo[3,4-c][1,4]diazepin-10-yl)-N-(1-methyl-1H-pyrazol-5-yl)pyrimidin-2-amine] are more than 0.01 µM and more than 0.1 µM.
For `Cc1cc(C(F)(F)c2nnc3n2[C@@H](CF)Cn2cc(-c4cc(Nc5ccnn5C)ncc4C)cc2-3)on1` [Compound 99], in that order: not above 0.005 µM and more than 0.1 µM.
On the same counts, the results for `CO[C@H]1Cn2cc(-c3cc(Nc4ccnn4C)ncc3Cl)cc2-c2nnc(C3(C(C)(F)F)CCC3)n2C1` [Compound 155] are 0.005 to 0.01 µM and not above 0.1 µM.
`COC[C@H]1Cn2cc(-c3nc(Nc4ccnn4C)ncc3C)nc2-c2nnc(C(F)(F)c3ccccc3Cl)n21` [Compound 220, (R)-4-(3-((2-chlorophenyl)difluoromethyl)-5-(methoxymethyl)-5,6-dihydroimidazo[1,2-a][1,2,4]triazolo[3,4-c]pyrazin-9-yl)-5-methyl-N-(1-methyl-1H-pyrazol-5-yl)pyrimidin-2-amine]: the IC50 is not above 0.005 µM in assay [1] and not above 0.1 µM in assay [2].
For `Cc1cnc(Nc2ccnn2C)nc1-c1cc2n(c1)[C@H](C)Cn1c-2nnc1C1(C(F)(F)F)CCC1` [Compound 48], in that order: not above 0.005 µM and more than 0.1 µM.
On to `C[C@@H](CO)Nc1ncc(Cl)c(-c2cc3n(c2)CCCn2c-3nnc2C2(C(F)(F)F)CCC2)n1` [Compound 276], for which the values for the concentration for half-maximal inhibition (IC50) in assay [1] and in assay [2] were not above 0.005 µM and not above 0.1 µM, respectively.
In the case of `Cc1cnc(Nc2ccnn2C)cc1-c1cc2n(c1)C[C@H](CF)n1c-2nnc1C(F)(F)c1sccc1Cl` [Compound 195], the IC50 is not above 0.005 µM in assay [1] and not above 0.1 µM in assay [2].
On the same counts, the results for `Cc1cnc(Nc2ccnn2C)cc1-c1cc2n(c1)C[C@H](CF)n1c-2nnc1C(F)(F)c1ccccc1Cl` [Compound 172] are 0.005 to 0.01 µM and not above 0.1 µM.
For `Cn1nccc1Nc1ncc(F)c(-c2cc3n(c2)C[C@H](CF)n2c-3nnc2C(F)(F)c2ccccc2Cl)n1` [Compound 193], in that order: 0.005 to 0.01 µM and not above 0.1 µM.
On the same counts, the results for `Cn1nccc1Nc1cc(-c2cc3n(c2)CCC2(CC2)n2c(CCC(F)(F)F)nnc2-3)c(Cl)cn1` [Compound 255] are not above 0.005 µM and more than 0.1 µM.
Turning to `Cn1nccc1Nc1nccc(-c2cc3n(c2)C[C@H](C(F)F)n2c-3nnc2C(F)(F)c2ccccc2F)n1` [Compound 149], the figures for the half-maximal inhibitory concentration (IC50) in assay [1] and in assay [2] were not above 0.005 µM and not above 0.1 µM, respectively.
On the same counts, the results for `Cc1cnc(Nc2ccnn2C)nc1-c1cc2n(c1)CCn1c-2nnc1C(F)(F)c1ccccc1Cl` [Compound 94] are not above 0.005 µM and not above 0.1 µM.
On the same counts, the results for `C[C@H]1CCn2cc(-c3cc(Nc4ccnn4C)ncc3Cl)cc2-c2nnc(C3(C(C)(F)F)CCC3)n21` [Compound 105] are 0.005 to 0.01 µM and not above 0.1 µM.
On the same counts, the results for `CCn1nccc1Nc1ncc(C)c(-c2cc3n(c2)C[C@H](C)n2c-3nnc2C(F)(F)c2ccccc2F)n1` [Compound 289] are more than 0.01 µM and not above 0.1 µM.
Regarding `Cc1cnccc1Nc1ncc(C)c(-c2cc3n(c2)CCCn2c-3nnc2C2(C(F)(F)F)CCC2)n1` [Compound 286], the IC50 in assay [1] was 0.005 to 0.01 µM; in assay [2] it was not above 0.1 µM.
On to `Cn1nccc1Nc1ncc(F)c(-c2cc3n(c2)CCCn2c-3nnc2C2(C(F)(F)F)CCC2)n1` [Compound 285], for which the IC50 in assay [1] was not above 0.005 µM; in assay [2] it was more than 0.1 µM.
Turning to `Cn1nccc1Nc1cc(-c2cc3n(c2)CCn2c-3nnc2C(F)(F)C(F)F)c(Cl)cn1` [Compound 58], the IC50 is not above 0.005 µM in assay [1] and not above 0.1 µM in assay [2].
As to `CCCn1nccc1Nc1ncc(C)c(-c2cc3n(c2)C[C@H](C)n2c-3nnc2C(F)(F)c2ccccc2F)n1` [Compound 291], the IC50 was more than 0.01 µM in assay [1] and not above 0.1 µM in assay [2].
For `Cc1cnc(Nc2ccnn2C)nc1-c1cc2n(c1)CCCn1c(COc3ccccc3F)nnc1-2` [Compound 17], the values for the IC50 in assay [1] and in assay [2] were not above 0.005 µM and not above 0.1 µM, respectively.
On the same counts, the results for `Cn1nccc1Nc1ncc(Cl)c(-c2cc3n(c2)CCCn2c(COC4(C(F)(F)F)CCC4)nnc2-3)n1` [Compound 213] are not above 0.005 µM and not above 0.1 µM.
As for `C[C@H]1Cn2cc(-c3ccnc(Nc4ccnn4C)n3)cc2-c2nnc(C(F)(F)c3ccccc3F)n21` [Compound 71], the values for the IC50 in assay [1] and in assay [2] were not above 0.005 µM and not above 0.1 µM, respectively.
On the same counts, the results for `Cc1cnc(Nc2ccnn2C)cc1-c1cc2n(c1)C[C@H](CF)n1c-2nnc1C(F)(F)C(F)(F)F` [Compound 76] are not above 0.005 µM and more than 0.1 µM.
For `Cc1cc(Nc2ncc(C)c(-c3cc4n(c3)CCCn3c-4nnc3C3(C(F)(F)F)CCC3)n2)ccn1` [Compound 281, 5-methyl-N-(2-methylpyridin-4-yl)-4-(3-(1-(trifluoromethyl)cyclobutyl)-6,7-dihydro-5H-pyrrolo[1,2-a][1,2,4]triazolo[3,4-c][1,4]diazepin-10-yl)pyrimidin-2-amine], the figures for the IC50 in assay [1] and in assay [2] were not above 0.005 µM and not above 0.1 µM, respectively.
For `Cc1cnc(Nc2ccnn2C)cc1-c1cc2n(c1)C[C@H](CF)n1c-2nnc1C(F)(F)c1cccc(F)c1` [Compound 127], in that order: 0.005 to 0.01 µM and not above 0.1 µM.
For `Cn1nccc1Nc1cc(-c2cc3n(c2)C[C@H](CF)n2c-3nnc2C(F)(F)c2cccc(F)c2)c(Cl)cn1` [Compound 191], in that order: 0.005 to 0.01 µM and more than 0.1 µM.
For `Cn1nccc1Nc1nccc(-c2cc3n(c2)CCCn2c(CSc4ccccc4F)nnc2-3)n1` [Compound 19], in that order: not above 0.005 µM and not above 0.1 µM.
As for `COc1ccccc1C(F)(F)c1nnc2n1[C@@H](CF)Cn1cc(-c3nc(Nc4ccnn4C)ncc3C)cc1-2` [Compound 167], the IC50 in assay [1] is not above 0.005 µM; in assay [2] it was not above 0.1 µM.
On the same counts, the results for `Cn1nccc1Nc1cc(-c2cc3n(c2)CCCn2c(Cc4ccccc4C#N)nnc2-3)c(Cl)cn1` [Compound 27] are not above 0.005 µM and not above 0.1 µM.
On the same counts, the results for `Cn1nccc1Nc1cc(-c2cc3n(c2)CCCn2c-3nnc2C2(C(F)(F)F)CCCC2)c(Cl)cn1` [Compound 31] are 0.005 to 0.01 µM and not above 0.1 µM.
On the same counts, the results for `Cc1cnc(Nc2ccnn2C)cc1-c1cc2n(c1)C[C@H](CF)n1c-2nnc1C(F)(F)C(F)F` [Compound 62] are not above 0.005 µM and not above 0.1 µM.
Regarding `Cn1nccc1Nc1cc(-c2cc3n(c2)C[C@H](CF)n2c-3nnc2C(F)(F)n2cc(F)cn2)c(Cl)cn1` [Compound 163], the 50% inhibitory concentration (IC50) in assay [1] is not above 0.005 µM; in assay [2], not above 0.1 µM.
For `Cn1nccc1Nc1cc(-c2cc3n(c2)C[C@H](CF)n2c-3nnc2C(F)(F)C(F)F)c(F)cn1` [Compound 63], in that order: not above 0.005 µM and not above 0.1 µM.
For `Cc1cnc(Nc2ccnn2C)nc1-c1cc2n(c1)CCCn1c(Cc3ccccc3F)nnc1-2` [Compound 6], in that order: 0.005 to 0.01 µM and not above 0.1 µM.
In the case of `C[C@@H](CO)Nc1cc(-c2cc3n(c2)CCCn2c-3nnc2C2(C(F)(F)F)CCC2)c(Cl)cn1` [Compound 229, (S)-2-((5-chloro-4-(3-(1-(trifluoromethyl)cyclobutyl)-6,7-dihydro-5H-pyrrolo[1,2-a][1,2,4]triazolo[3,4-c][1,4]diazepin-10-yl)pyridin-2-yl)amino)propan-1-ol], the IC50 in assay [1] was not above 0.005 µM; in assay [2] it was not above 0.1 µM.
On the same counts, the results for `Cc1cnc(Nc2ccnn2C)cc1-c1cc2n(c1)CC1(CC1)Cn1c-2nnc1C(F)(F)C(F)(F)F` [Compound 84] are 0.005 to 0.01 µM and more than 0.1 µM.
`Cn1nccc1Nc1cc(-c2cc3n(c2)C[C@H](CF)n2c-3nnc2C2(C(C)(F)F)CCC2)c(Cl)cn1` [Compound 116]: the figures for the IC50 in assay [1] and in assay [2] were 0.005 to 0.01 µM and more than 0.1 µM, respectively.
For `CCC(F)(F)c1nnc2n1[C@@H](CF)Cn1cc(-c3cc(Nc4ccnn4C)ncc3C)cc1-2` [Compound 57], in that order: not above 0.005 µM and more than 0.1 µM.
For `Cn1nccc1Nc1nccc(-c2cc3n(c2)CCCn2c(COc4ccccc4)nnc2-3)n1` [Compound 36, N-(1-methyl-1H-pyrazol-5-yl)-4-(3-(phenoxymethyl)-6,7-dihydro-5H-pyrrolo[1,2-a][1,2,4]triazolo[3,4-c][1,4]diazepin-10-yl)pyrimidin-2-amine], in that order: not above 0.005 µM and more than 0.1 µM.
Consider `Cn1nccc1Nc1cc(-c2cc3n(c2)CCn2c-3nnc2C2(C(F)(F)F)CCC2)c(Cl)cn1` [Compound 20], for which the IC50 is not above 0.005 µM in assay [1] and not above 0.1 µM in assay [2].
With `Cn1nccc1Nc1cc(-c2cc3n(c2)CC(C)(C)n2c(CCC(F)(F)F)nnc2-3)c(Cl)cn1` [Compound 247], the half-maximal inhibitory concentration (IC50) is not above 0.005 µM in assay [1] and not above 0.1 µM in assay [2].
For `Cn1nccc1Nc1cc(-c2cc3n(c2)CC(F)(F)Cn2c(Cn4cc(F)cc4C#N)nnc2-3)c(Cl)cn1` [Compound 219], in that order: not above 0.005 µM and more than 0.1 µM.
